Laboratory results as given in ChEMBL document CHEMBL6096667, “Design, synthesis and biological evaluation of biaryl amide derivatives as modulators of multi-drug resistance” (Eur J Med Chem, 2025).

Assays:
[1] = Inhibition of cell proliferation of human A2780/CDDP cells by MTT assay; assay type: functional, cell-based
[2] = system: A2780/Taxol; test: Inhibition of cell proliferation of human Paclitaxel-resistant A2780/T cells incubated for 48 hrs in presence of PTX by MTT assay; assay type: functional, cell-based
[3] = system: A2780/Taxol; test: Inhibition of cell proliferation of human Paclitaxel-resistant A2780/T cells at 1 uM incubated for 48 hrs in presence of PTX by MTT assay relative to control; assay type: functional
[4] = system: A2780/Taxol; test: Inhibition of cell proliferation of human Paclitaxel-resistant A2780/T cells at 0.1 uM incubated for 48 hrs in presence of PTX by MTT assay relative to control; assay type: functional
[5] = system: A2780/Taxol; test: Inhibition of cell proliferation of human Paclitaxel-resistant A2780/T cells at 0.01 uM incubated for 48 hrs in presence of PTX by MTT assay relative to control; assay type: functional
[6] = Inhibition of cell proliferation of human CDDP-resistant A549 cells by MTT assay; assay type: functional, cell-based
[7] = system: A2780/Taxol; test: Inhibition of cell proliferation of human Paclitaxel-resistant A2780/T cells at 10 uM incubated for 48 hrs in presence of PTX by MTT assay relative to control; assay type: functional
[8] = target: T1, ATP-dependent translocase ABCB1 (Homo sapiens, UniProt P08183); test: Inhibition of P-gp-mediated drug efflux of Rh123 in human Paclitaxel-resistant A2780/T cells at 2 uM measured upto 120 mins by flow cytometry; assay type: cell-based; conditions: paclitaxel-resistant a2780/t cell, 2 h
[9] = system: A2780/Taxol; test: Reversal of paclitaxel resistance in human Paclitaxel-resistant A2780/T cells by MTT assay; assay type: functional, cell-based
[10] = target: T1, ATP-dependent translocase ABCB1; test: Binding affinity to CM5 sensor chip-immobilized human P-gp assessed as dissociation constant by SPR analysis
[11] = Reversal of paclitaxel resistance in human A2780/CDDP cells assessed as reversal fold by measuring ratio of paclitaxel IC50 to paclitaxel IC50 in presence of test compound by MTT assay; assay type: functional
[12] = target: T1, ATP-dependent translocase ABCB1; test: Inhibition of P-gp in human Paclitaxel-resistant A2780/T cells incubated for 48 hrs by Western blot analysis; assay type: cell-based; conditions: paclitaxel-resistant a2780/t cell, 10 µM
[13] = target: Multidrug resistance-associated protein 1 (Homo sapiens, UniProt P33527); test: Inhibition of MRP1 in human Paclitaxel-resistant A2780/T cells at high concentration incubated for 48 hrs by Western blot analysis; assay type: cell-based; conditions: paclitaxel-resistant a2780/t cell
[14] = Reversal of paclitaxel resistance in human CDDP-resistant A549 cells assessed as reversal fold by measuring ratio of paclitaxel IC50 to paclitaxel IC50 in presence of test compound by MTT assay; assay type: functional, CDDP-resistant A549 cell
[15] = target: T2, Broad substrate specificity ATP-binding cassette transporter ABCG2 (Homo sapiens, UniProt Q9UNQ0); test: Inhibition of ABCG2 in human Paclitaxel-resistant A2780/T cells at high concentration incubated for 48 hrs by Western blot analysis; assay type: cell-based; conditions: paclitaxel-resistant a2780/t cell
T2 sequence (Q9UNQ0 whole entry): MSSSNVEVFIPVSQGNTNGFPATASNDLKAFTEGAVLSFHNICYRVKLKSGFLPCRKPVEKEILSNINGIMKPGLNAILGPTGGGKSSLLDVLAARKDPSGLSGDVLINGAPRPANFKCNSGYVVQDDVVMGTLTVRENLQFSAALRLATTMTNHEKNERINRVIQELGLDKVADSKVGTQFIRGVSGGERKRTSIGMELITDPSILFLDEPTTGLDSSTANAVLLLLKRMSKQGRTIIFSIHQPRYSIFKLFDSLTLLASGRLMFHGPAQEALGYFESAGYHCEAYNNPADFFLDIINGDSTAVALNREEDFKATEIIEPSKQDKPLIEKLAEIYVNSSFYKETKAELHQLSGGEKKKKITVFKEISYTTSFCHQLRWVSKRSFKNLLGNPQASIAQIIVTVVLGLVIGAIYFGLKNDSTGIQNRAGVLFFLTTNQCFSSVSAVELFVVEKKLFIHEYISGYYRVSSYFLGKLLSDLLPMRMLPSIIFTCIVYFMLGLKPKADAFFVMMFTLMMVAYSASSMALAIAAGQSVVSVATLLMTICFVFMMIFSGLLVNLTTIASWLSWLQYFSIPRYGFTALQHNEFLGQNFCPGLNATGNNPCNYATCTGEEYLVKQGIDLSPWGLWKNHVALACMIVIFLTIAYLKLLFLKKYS

[16] = system: A2780/Taxol; test: Reversal of paclitaxel resistance in human Paclitaxel-resistant A2780/T cells assessed as reversal fold by measuring ratio of paclitaxel IC50 to paclitaxel IC50 in presence of test compound at 1 uM incubated for 48 hrs by MTT assay; assay type: functional
[17] = system: A2780/Taxol; test: Induction of intracellular Rh123 accumulation in human Paclitaxel-resistant A2780/T cells incubated for 4 hrs by flow cytometry; assay type: functional, cell-based; conditions: dose 0.5-2 µM

T1 sequence (P08183 whole entry): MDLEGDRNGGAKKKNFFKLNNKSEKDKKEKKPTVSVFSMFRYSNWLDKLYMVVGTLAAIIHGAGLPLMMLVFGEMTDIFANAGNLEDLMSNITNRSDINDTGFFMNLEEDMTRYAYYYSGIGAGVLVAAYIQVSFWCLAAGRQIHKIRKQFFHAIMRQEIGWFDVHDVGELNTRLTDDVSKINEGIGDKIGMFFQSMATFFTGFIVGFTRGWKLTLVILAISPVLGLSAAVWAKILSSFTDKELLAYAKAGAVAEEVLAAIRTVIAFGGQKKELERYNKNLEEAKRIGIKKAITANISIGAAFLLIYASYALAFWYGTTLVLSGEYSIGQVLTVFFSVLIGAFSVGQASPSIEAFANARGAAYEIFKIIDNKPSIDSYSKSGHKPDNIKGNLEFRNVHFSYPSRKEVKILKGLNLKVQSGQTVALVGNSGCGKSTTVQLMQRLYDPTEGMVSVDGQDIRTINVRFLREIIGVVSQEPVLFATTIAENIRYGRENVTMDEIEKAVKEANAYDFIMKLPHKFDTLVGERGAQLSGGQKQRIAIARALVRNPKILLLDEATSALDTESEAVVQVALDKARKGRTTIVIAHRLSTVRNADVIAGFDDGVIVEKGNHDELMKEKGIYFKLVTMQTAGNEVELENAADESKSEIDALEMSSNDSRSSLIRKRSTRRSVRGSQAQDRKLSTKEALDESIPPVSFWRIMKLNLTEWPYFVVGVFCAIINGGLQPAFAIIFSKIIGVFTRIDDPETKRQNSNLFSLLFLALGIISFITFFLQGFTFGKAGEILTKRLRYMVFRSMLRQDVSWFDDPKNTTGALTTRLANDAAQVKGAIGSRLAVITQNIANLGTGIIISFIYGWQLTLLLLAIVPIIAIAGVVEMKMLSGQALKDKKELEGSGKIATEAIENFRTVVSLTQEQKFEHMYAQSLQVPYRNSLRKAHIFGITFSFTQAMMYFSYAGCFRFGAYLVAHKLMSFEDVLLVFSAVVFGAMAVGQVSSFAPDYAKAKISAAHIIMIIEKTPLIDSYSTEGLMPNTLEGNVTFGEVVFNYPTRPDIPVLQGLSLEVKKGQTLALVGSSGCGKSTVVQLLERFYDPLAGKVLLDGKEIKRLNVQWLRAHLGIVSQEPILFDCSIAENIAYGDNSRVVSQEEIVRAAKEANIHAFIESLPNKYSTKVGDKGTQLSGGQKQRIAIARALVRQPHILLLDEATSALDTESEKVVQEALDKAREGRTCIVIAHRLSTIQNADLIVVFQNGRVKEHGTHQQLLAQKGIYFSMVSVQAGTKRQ
Multidrug resistance-associated protein 1, sequence (P33527 whole entry): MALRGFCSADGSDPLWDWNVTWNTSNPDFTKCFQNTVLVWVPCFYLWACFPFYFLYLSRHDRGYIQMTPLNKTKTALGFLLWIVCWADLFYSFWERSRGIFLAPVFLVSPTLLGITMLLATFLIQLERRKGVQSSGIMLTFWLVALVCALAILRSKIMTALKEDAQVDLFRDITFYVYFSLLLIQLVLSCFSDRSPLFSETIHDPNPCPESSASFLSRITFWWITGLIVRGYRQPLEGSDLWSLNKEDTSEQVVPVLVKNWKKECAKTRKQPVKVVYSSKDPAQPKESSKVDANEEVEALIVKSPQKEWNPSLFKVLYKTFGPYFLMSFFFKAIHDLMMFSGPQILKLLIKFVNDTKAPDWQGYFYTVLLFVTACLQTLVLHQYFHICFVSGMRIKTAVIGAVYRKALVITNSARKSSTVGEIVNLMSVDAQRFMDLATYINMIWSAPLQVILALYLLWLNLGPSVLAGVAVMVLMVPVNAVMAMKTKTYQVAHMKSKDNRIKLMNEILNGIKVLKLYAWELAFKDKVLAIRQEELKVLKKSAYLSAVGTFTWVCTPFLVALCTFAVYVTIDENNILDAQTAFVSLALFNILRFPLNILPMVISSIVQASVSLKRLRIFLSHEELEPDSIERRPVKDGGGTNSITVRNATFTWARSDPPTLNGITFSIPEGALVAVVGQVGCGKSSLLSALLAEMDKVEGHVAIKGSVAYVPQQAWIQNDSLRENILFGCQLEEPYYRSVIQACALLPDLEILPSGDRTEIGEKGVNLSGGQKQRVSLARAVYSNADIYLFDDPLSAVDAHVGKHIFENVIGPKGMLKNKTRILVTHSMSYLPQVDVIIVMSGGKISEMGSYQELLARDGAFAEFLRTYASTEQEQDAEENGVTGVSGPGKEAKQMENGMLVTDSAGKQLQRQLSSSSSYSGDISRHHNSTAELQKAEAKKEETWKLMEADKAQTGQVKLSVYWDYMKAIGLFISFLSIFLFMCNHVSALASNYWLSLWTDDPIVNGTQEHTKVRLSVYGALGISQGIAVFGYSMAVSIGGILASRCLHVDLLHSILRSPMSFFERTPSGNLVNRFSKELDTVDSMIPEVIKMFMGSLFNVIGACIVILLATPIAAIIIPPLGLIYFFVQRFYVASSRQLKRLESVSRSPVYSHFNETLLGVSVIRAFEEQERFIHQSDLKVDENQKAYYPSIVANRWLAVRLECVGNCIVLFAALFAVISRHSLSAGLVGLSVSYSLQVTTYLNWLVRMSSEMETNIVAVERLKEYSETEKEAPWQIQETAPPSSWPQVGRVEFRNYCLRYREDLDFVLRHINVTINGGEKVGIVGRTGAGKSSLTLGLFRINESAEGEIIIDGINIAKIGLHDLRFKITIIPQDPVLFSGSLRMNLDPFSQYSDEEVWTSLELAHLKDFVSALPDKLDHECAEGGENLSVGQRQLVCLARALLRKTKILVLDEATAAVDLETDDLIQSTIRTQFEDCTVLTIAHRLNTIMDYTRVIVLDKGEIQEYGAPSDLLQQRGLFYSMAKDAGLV

| Structure (SMILES) | IC50 [1] [µM] | IC50 [2] [µM] | inhibition at 1 µM [3] [%] | inhibition at 0.1 µM [4] [%] | inhibition at 0.01 µM [5] [%] | IC50 [6] [µM] | inhibition at 10 µM [7] [%] | inhibition (INH) [8] | EC50 [9] [µM] | Kd [10] [µM] | Ratio IC50 [11] | inhibition (INH) [12] | inhibition (INH) [13] | Ratio IC50 [14] | inhibition (INH) [15] | Ratio IC50 [16] | Activity [17] |
| --- | --- | --- | --- | --- | --- | --- | --- | --- | --- | --- | --- | --- | --- | --- | --- | --- | --- |
| CC(=O)O[C@H]1C(=O)[C@@]2(C)[C@H]([C@H](OC(=O)c3ccccc3)[C@]3(O)C[C@H](OC(=O)[C@H](O)[C@@H](NC(=O)c4ccccc4)c4ccccc4)C(C)=C1C3(C)C)[C@]1(OC(C)=O)CO[C@@H]1C[C@@H]2O [PACLITAXEL] | 55.2 | 14.1 | 9 | 35 | 9 | 27.2 | 35 | – | – | – | – | – | – | – | – | – | – |
| COc1cc(-c2ccc(CNC(=O)c3cn(C)c4ccccc34)nc2)cc(OC)c1OC | – | > 50 | 55 | – | – | – | 88 | Active | 0.088 | 0.798 | 11 | Dose-dependent-effect | Active | 7 | Not_active | 156 | Dose-dependent-effect; Activity Was Observed Superior To Vrp |
